Here are results for 3 molecules from ChEMBL document CHEMBL1201862, “PubChem BioAssay data set” (2004).

SMILES strings stand for the structures. Active and inactive are the calls of the source. Bounds are passed on as bounds.

Type in all cases: functional
In test [1] the target is Serine/threonine-protein kinase D3 (Homo sapiens, UniProt O94806).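 Further: determined within a kinase panel screen, with PRKCN as the panel member.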
Test [2] deals with Vascular endothelial growth factor receptor 2 (Homo sapiens, UniProt P35968).
Test [3] has as its target Fibroblast growth factor receptor 1 (Homo sapiens, UniProt P11362).
In test [4] the target is Serine/threonine-protein kinase DCLK1 (Homo sapiens, UniProt O15075).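 Further: affinity for DCLK1 (listed as DCAMKL1) measured as one member of a kinome-wide kinase profiling panel.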
Test [5] deals with T1, Serine/threonine-protein kinase D2 (Homo sapiens, UniProt Q9BZL6).
T1 sequence (Q9BZL6 whole entry): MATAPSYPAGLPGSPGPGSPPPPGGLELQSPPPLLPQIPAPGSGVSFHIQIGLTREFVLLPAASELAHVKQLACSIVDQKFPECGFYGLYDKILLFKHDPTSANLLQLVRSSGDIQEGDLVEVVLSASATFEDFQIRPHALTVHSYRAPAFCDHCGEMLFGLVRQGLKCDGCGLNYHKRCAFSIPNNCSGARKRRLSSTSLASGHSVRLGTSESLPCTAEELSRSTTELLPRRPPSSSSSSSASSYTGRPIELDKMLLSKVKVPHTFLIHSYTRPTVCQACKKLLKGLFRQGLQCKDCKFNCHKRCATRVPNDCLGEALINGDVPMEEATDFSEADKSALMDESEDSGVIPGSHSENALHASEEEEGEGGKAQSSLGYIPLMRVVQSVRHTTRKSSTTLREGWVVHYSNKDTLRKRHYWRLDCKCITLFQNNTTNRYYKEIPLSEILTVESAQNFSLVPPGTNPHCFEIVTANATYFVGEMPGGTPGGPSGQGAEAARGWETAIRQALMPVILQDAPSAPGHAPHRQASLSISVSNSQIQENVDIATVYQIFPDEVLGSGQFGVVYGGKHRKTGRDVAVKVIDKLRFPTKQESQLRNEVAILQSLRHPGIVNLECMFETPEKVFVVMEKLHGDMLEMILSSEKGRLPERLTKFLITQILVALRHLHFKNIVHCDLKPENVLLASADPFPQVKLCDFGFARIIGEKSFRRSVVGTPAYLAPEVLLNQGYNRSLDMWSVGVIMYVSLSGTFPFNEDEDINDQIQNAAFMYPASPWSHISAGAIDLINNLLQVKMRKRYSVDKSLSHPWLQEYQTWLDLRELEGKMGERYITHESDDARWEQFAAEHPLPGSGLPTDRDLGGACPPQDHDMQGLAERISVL

In another test the target is Misshapen-like kinase 1 (Homo sapiens, UniProt Q8N4C8).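 Further: kinome panel screen with MINK as the panel member.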
The target of test [6] is Proto-oncogene tyrosine-protein kinase Src (Homo sapiens, UniProt P12931).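 Further: SRC entry within a kinome-wide kinase profiling panel.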
For test [7], the target named is BDNF/NT-3 growth factors receptor (Homo sapiens, UniProt Q16620).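 Further: NTRK2 measured as one member of a broad kinome-wide kinase profiling panel.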
In test [8] the target is Tyrosine-protein kinase BTK (Homo sapiens, UniProt Q06187).
Test [9] deals with T2, Receptor-type tyrosine-protein kinase FLT3 (Homo sapiens, UniProt P36888).
T2 sequence (P36888 whole entry): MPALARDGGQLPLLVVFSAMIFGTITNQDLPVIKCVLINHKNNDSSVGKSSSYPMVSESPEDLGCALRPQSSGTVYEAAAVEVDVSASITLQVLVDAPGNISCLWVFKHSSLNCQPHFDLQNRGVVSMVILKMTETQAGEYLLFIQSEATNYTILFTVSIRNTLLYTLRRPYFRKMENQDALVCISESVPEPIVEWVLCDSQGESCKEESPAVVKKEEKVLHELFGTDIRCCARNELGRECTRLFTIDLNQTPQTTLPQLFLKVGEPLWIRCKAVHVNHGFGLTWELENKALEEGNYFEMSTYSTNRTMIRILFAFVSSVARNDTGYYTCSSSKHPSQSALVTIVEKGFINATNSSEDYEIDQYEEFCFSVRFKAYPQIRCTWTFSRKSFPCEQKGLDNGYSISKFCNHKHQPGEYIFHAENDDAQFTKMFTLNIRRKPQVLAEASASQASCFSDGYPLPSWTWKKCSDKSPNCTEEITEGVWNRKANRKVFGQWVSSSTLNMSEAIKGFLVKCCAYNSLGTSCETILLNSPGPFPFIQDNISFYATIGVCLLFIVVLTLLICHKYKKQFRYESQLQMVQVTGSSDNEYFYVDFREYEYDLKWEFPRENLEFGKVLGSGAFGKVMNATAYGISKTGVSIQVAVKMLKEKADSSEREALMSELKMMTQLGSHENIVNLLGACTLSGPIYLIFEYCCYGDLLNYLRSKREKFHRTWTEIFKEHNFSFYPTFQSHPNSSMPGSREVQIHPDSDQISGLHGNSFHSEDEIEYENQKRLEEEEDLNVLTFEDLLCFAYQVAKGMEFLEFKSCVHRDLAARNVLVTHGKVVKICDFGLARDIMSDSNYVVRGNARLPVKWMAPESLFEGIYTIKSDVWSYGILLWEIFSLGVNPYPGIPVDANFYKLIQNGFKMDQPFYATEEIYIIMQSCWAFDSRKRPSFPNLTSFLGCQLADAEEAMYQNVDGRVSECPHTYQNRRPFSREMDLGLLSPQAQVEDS

Test [10] has as its target Glycogen synthase kinase-3 alpha (Homo sapiens, UniProt P49840).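 Further: GSK3A result taken from a broad kinome-wide kinase panel.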
In test [11] the target is Serine/threonine-protein kinase PLK1 (Homo sapiens, UniProt P53350).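 Further: PLK1 measured as one member of a kinome-wide profiling panel.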
The target of test [12] is High affinity nerve growth factor receptor (Homo sapiens, UniProt P04629).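 Further: NTRK1 tested as one member of a kinome-wide profiling panel.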
Test [13] has as its target Rho-associated protein kinase 1 (Homo sapiens, UniProt Q13464).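 Further: measured within a broad kinome-wide panel profiling many kinases.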
The target of test [14] is Calcium/calmodulin-dependent protein kinase type II subunit delta (Homo sapiens, UniProt Q13557).
The target of test [15] is Protein kinase C delta type (Homo sapiens, UniProt Q05655).
Test [16] addresses Serine/threonine-protein kinase N2 (Homo sapiens, UniProt Q16513).
Test [17] concerns the target Fibroblast growth factor receptor 3 (Homo sapiens, UniProt P22607).
Test [18] concerns the target Protein kinase C gamma type (Homo sapiens, UniProt P05129).
The target of test [19] is Interleukin-1 receptor-associated kinase 1 (Homo sapiens, UniProt P51617).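 Further: IRAK1 tested as one member of a kinome panel.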
Interleukin-1 receptor-associated kinase 1, sequence (P51617 whole entry): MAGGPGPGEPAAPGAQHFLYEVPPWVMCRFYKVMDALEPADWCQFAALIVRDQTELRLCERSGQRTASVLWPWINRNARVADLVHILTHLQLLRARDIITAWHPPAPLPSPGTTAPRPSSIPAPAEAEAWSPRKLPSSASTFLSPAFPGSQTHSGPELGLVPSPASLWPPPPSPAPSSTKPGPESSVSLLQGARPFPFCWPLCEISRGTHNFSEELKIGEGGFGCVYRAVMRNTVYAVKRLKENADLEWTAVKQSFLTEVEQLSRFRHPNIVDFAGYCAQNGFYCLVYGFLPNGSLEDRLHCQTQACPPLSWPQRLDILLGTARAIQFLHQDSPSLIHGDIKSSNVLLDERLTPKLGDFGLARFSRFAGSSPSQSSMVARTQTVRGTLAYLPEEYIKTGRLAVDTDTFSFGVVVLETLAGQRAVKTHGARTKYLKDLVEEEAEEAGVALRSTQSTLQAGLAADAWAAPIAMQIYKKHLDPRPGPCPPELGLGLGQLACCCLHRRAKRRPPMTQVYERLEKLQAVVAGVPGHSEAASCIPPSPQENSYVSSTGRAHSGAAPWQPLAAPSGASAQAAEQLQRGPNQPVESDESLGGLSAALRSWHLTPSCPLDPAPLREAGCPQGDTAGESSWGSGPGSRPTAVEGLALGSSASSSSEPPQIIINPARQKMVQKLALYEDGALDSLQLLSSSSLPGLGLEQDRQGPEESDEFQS

Vascular endothelial growth factor receptor 2, sequence (P35968 whole entry): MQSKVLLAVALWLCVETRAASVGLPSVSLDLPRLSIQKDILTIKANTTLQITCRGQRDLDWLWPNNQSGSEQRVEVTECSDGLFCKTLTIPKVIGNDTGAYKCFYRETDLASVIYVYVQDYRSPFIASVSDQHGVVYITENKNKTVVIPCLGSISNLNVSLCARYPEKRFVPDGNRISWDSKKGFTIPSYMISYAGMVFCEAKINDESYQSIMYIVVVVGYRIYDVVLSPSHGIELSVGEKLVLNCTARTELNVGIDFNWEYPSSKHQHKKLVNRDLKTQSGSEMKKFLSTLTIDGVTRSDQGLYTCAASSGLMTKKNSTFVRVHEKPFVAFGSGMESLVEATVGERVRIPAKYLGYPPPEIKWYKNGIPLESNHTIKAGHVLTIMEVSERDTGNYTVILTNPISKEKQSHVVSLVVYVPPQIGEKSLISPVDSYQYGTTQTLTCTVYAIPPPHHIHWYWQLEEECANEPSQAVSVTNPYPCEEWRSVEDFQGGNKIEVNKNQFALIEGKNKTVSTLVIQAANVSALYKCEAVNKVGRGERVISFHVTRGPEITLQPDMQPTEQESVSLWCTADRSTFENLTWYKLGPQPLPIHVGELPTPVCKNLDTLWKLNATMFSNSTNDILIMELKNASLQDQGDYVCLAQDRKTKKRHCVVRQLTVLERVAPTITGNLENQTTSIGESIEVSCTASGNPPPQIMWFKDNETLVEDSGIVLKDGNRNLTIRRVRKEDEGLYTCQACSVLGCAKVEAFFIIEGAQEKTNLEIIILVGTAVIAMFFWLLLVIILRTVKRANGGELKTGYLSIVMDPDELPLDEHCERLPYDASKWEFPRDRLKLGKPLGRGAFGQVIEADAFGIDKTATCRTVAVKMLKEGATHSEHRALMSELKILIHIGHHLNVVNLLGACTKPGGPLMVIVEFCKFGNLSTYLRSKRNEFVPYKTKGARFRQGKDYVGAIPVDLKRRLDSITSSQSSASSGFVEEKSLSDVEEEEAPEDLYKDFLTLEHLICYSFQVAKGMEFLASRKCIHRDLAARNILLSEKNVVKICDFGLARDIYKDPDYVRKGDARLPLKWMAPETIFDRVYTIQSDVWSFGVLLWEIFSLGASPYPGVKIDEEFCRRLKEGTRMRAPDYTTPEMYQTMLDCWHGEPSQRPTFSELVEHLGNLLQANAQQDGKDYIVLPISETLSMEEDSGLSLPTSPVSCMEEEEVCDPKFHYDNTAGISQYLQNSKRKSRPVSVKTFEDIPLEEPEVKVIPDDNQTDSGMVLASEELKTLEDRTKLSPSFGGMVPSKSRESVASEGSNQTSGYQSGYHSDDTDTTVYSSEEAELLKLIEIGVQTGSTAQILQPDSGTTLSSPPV
Misshapen-like kinase 1, sequence (Q8N4C8 whole entry): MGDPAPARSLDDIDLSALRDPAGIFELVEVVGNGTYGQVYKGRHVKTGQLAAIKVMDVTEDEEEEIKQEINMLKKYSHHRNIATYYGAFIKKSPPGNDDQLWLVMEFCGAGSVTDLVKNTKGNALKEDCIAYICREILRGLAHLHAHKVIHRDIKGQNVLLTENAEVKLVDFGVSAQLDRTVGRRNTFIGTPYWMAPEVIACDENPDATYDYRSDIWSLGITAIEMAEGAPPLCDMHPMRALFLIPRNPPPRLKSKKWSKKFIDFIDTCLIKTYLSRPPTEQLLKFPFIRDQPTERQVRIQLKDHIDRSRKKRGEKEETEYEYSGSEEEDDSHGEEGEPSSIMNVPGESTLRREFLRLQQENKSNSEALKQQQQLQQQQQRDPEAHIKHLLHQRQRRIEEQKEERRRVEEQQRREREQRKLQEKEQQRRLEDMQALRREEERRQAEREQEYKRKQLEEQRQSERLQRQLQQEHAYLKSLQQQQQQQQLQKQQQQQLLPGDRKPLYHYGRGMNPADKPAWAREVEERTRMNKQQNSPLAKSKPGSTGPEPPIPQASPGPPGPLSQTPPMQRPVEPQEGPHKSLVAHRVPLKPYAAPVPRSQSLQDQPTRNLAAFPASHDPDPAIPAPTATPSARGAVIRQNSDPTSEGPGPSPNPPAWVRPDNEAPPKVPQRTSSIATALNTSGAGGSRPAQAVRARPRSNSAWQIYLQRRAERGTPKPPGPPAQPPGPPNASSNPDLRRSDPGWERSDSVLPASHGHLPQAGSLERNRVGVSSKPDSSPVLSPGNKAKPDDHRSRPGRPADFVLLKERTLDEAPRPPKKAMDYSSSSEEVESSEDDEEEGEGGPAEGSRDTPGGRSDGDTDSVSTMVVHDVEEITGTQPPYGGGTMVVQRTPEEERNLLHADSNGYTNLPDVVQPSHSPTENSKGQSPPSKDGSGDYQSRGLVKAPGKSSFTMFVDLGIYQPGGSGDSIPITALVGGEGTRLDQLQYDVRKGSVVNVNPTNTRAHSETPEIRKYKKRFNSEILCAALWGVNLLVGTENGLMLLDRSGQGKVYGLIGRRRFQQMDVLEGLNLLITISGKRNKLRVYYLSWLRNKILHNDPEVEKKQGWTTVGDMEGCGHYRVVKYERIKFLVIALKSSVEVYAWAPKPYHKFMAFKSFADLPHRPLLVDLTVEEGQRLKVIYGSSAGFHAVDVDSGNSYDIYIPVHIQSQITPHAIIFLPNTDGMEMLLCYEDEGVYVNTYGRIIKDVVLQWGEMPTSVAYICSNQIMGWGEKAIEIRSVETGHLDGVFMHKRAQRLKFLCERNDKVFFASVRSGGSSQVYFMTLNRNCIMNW
Glycogen synthase kinase-3 alpha, sequence (P49840 whole entry): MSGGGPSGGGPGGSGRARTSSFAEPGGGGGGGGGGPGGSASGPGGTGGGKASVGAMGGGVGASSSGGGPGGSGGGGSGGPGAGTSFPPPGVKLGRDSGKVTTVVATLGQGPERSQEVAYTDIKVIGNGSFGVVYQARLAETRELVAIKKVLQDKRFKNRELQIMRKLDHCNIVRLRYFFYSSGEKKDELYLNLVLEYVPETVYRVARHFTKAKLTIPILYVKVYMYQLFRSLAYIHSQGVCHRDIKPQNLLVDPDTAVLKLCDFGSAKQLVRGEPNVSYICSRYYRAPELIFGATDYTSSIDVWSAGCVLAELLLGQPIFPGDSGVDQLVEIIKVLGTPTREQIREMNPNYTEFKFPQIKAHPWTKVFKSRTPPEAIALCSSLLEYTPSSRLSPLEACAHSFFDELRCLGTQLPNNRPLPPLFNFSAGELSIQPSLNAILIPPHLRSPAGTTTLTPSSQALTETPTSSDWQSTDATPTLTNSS
Serine/threonine-protein kinase N2, sequence (Q16513 whole entry): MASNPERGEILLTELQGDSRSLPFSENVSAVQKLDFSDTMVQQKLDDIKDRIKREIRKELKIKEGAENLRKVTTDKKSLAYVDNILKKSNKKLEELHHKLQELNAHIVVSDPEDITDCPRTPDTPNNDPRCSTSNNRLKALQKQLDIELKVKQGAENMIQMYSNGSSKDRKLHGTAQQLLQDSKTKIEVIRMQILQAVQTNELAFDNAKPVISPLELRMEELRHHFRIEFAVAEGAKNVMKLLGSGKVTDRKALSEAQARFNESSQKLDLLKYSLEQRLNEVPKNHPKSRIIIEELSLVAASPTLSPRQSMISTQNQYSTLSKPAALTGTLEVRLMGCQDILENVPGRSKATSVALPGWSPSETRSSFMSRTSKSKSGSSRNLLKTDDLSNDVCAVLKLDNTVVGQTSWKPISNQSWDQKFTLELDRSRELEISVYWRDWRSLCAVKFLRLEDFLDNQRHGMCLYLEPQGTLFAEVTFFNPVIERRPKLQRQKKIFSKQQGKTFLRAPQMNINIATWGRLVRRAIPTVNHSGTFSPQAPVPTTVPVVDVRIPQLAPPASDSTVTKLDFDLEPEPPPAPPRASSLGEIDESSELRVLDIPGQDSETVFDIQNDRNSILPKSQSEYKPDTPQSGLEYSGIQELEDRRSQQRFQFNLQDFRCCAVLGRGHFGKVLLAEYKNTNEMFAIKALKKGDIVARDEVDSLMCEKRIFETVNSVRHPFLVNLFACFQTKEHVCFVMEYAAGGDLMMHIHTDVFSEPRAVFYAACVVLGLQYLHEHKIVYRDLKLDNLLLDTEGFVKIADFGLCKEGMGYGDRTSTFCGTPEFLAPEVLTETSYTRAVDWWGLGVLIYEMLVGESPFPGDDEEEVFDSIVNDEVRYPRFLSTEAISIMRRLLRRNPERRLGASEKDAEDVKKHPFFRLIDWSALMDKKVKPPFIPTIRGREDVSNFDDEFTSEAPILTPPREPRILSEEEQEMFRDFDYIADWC

One may read the Ki as a dissociation constant, usually derived from enzyme kinetics or from competition with a known ligand. As to `Cc1ccc(-n2nc(C(C)(C)C)cc2NC(=O)Nc2ccc(OCCN3CCOCC3)c3ccccc23)cc1` [DORAMAPIMOD], in test [1], the Ki was > 3980 nM (inactive).
Turning to `NC(COc1cncc(-c2ccc3c(c2)C(=Cc2ccco2)C(=O)N3)c1)Cc1c[nH]c2ccccc12` (centres undefined), the Ki in test [2] was 398 nM (active); in test [3], 794 nM (active); in [4], 1000 nM (active); in test [5] it was 15.8 nM (active); at Misshapen-like kinase 1, 39.8 nM (active); in [6], 398 nM (active). Also, the Ki in [7] was 316 nM (active); in [8] it was 501 nM (active); in [9], 31.6 nM (active); in test [1] it was 6.31 nM (active); in test [10] it was 398 nM (active); in [11], 2510 nM (active). Besides, the Ki was 79.4 nM (active) in test [12]; 31.6 nM (active) in test [13]; 15.8 nM (active) in [14]; 20 nM (active) in [15]; 5.01 nM (active) in test [16]; > 2000 nM (inactive) in test [17]. Moreover, the Ki in test [18] is 31.6 nM (active); in [19] it was 501 nM (active).
The term pKi denotes the negative decadic logarithm of the Ki, by convention in mol/L. The low end stands for a high Ki, the high end for a low Ki. For the molecule `NC(=O)c1cc(-c2ccnc(N)n2)[nH]c1-c1ccc(Cl)cc1Cl`, the Ki was 794 nM (active) in test [2]; > 3980 nM (inactive) in test [3]; > 10000 nM (inactive) in test [4]; 316 nM (active) in test [5]; 1580 nM (active) on Misshapen-like kinase 1; > 2000 nM (inactive) in [6]. The Ki in [7] was > 3980 nM (inactive); in test [8], > 1260 nM (inactive); in [9], > 1260 nM (inactive); in test [10], 6.31 nM (active); in [11], > 7940 nM (inactive); in [12], > 2510 nM (inactive). Besides, the Ki in test [13] was 126 nM (active); in [14] it was > 3160 nM (inactive); in test [15] it was 158 nM (active); in test [16] it was 20 nM (active); in test [17] it was > 2000 nM (inactive); in test [18] it was 251 nM (active). The Ki in test [19] is 100 nM (active). In addition, the pKi is 6.1 in [2]; 6.5 in test [5]; 5.8 on Misshapen-like kinase 1; 8.2 in test [10]; 6.9 in test [13]; 6.8 in [15]. In addition, the pKi in test [16] worked out at 7.7; in test [18], 6.6; in test [19] it was 7.
